From patent US20200179488A1, “Secretin Receptor Agonists to Treat Diseases or Disorders of Energy Homeostasis” (Technische Universität München, priority 2016, published 2020)

How the values were obtained:
fasted mice = assay: Food intake on refeeding of fasted wildtype mice; format: in vivo, Mus musculus; conditions: mice fasted 18 h, 5 nmol i.p. before refeeding, p=0.0181 (FIG. 7)
Method: For the measurement of food intake, a feeding-drinking-activity (FDA) device was used (TSE Systems, Bad Homburg/Germany). During the measurement mice were single-housed in type-III cages. Mice were habituated to the new cage environment and received every morning at 10 a.m. a single daily intraperitoneal (i.p.) PBS-injection for four days ahead of the experiment start. The body weight of the mice was measured every day. On day four day of habituation the food was removed from the cages at 5 p.m., and the mice were food deprived over night with ad libitum access to water. On the next morning, mice were i.p. injected with either PBS as control or secretin (rat, Tocris, Art Nr 1919). The latter was given in different doses. Subsequently the mice were refed ad libitum while monitoring food intake during the following 72 hours. […] Food intake was calculated from the decrease in feeder weight. The results were exported into a spreadsheet calculation table (Excel, Microsoft) and analyzed with a software package for statistics and graphics (GraphPad Prism 4.0, GraphPad Software, San Diego, USA).
Next to thermogenesis, brown fat has been proposed to function in the thermoregulatory control of feeding. […] Just before refeeding, mice were intra-peritoneally injected with 5 nmol secretin solved in PBS, or PBS as the vehicle control, and food intake was monitored for the following three days.

primary brown adipocytes = assay: Microplate respirometry (oxygen consumption rate) in differentiated primary brown adipocytes of wildtype mice; format: cell-based, Mus musculus; conditions: for stimulation of UCP1-mediated thermogenesis (uncoupled respiration): SCT 10 nM, ISO 500 nM, N=5 (FIG. 10A)
Method: For culturing primary adipocytes male 129S1/SvImJ mice ([…] or UCP1-KO mice and wildtype littermates) at the age of 5-6 weeks were used for the dissection of inguinal and epidydimal white adipose tissue and interscapular brown adipose tissue depots. The tissue was carefully minced and treated with collagenase for 45 min at 37° C. The homogenate was filtered through a 250 μm nylon mesh and centrifuged at 500 g to collect the stromal vascular fraction (SVF). The SVF cell pellet was rinsed and seeded into XF96 V3-PS cell culture microplate (Seahorse Bioscience). After reaching confluency, induction medium containing 10% fetal bovine serum (FBS), 0.5 mM isobutylmethylxanthine, 125 nM indomethacin, 1 mM dexamethasone, 850 nM insulin and 1 nM T3 was added. After 2 days of induction, cells were maintained in differentiation media (10% FBS, 850 nM insulin and 1 nM T3). Medium was changed every two days. Respiration was measured on day 7 of differentiation. For determination of mRNA levels cells were stimulated at the 7th day of differentiation for 6 hours with secretin (rat, Tocris, Art Nr 1919) or isoproterenol (Sigma-Aldrich, Art Nr. 16504-100MG) and harvested subsequently. Oxygen consumption rate (OCR) was measured at 37° C. using a microplate respirometer (XF96 extracellular flux analyzer, Seahorse Bioscience). At day 7, the differentiation medium was replaced with prewarmed, unbuffered assay medium (DMEM basal medium supplemented with 25 mM glucose, 2 mM sodium pyruvate, 31 mM NaCl, 2 mM GlutaMax and 15 mg/l phenol red, pH 7.4) containing 2% of essentially fatty acid free bovine serum albumin (BSA), and incubated at 37° C. in a room air incubator for 1 h. Basal respiration was measured in untreated cells. Coupled respiration was inhibited by oligomycin treatment (5 μM). […] Maximum respiratory capacity was assessed after FCCP (Sigma-Aldrich) addition (1 μM). Finally, mitochondrial respiration was blocked by antimycin A (Sigma-Aldrich) (5 μM) treatment and the residual OCR was considered to be due to non-mitochondrial reactions. Oxygen consumption rates were calculated using the Seahorse XF-96 software. Data were exported and reconstructed in GraphPad Prism 4.0 software. For each condition the lowest OCR after antimycin A addition was subtracted from all other values. Respiration rates following oligomycin addition were defined as basal OCR. For induction of OCR by isoproterenol, secretin or FCCP the highest values measured after addition of the respective molecule was used. The “OCR in % of basal OCR” and “OCR in % of FCCP OCR” were calculated as follows: Method: To test whether SCT can activate thermogenesis in brown adipocytes, we measured UCP1-mediated uncoupled respiration in cultured adherent intact primary brown adipocytes, according to a protocol recently established in our lab (Li Y, Fromme T, Schweizer S, Schöttl T, Klingenspor M. EMBO Rep. 2014 October; 15(10):1069-76. doi: 10.15252/embr.201438775; […]. Meaningful respirometric measurements of UCP1-mediated thermogenesis. Biochimie. 2017 March; 134:56-61. doi: 10.1016/j.biochi.2016.12.005.). The cellular oxygen consumption rate (OCR) of primary adipocytes was determined using an XF96 Extracellular Flux Analyzer (Seahorse Bioscience). Briefly, primary adipocytes were cultured and differentiated in XF96 microplates. At day 7 of differentiation, cells were washed once with prewarmed, unbuffered assay medium (DMEM basal medium supplemented with 25 mM glucose, 31 mM NaCl, 2 mM GlutaMax and 15 mg/l phenol red, pH 7.4) (basal assay medium) and then the medium was replaced with basal assay medium containing 1-2% essentially fatty acid free bovine serum albumin (BSA), and incubated at 37° C. in a room air incubator for 1 h. The drug injections ports of the sensor cartridges were loaded with the assay reagents at 10× in basal assay medium (no BSA). All respiration assays were performed in the presence of bovine serum albumin to buffer free fatty acid levels in the respiration medium. […]

secretin
food intake during the first two hours of refeeding versus PBS (fasted mice): significant inhibition of food intake
increase of OCR above basal OCR (primary brown adipocytes; 0.5 μM, after oligomycin, day 7 of differentiation (FIG. 2B)): about 200%
uncoupled OCR as share of maximal uncoupled OCR induced by FCCP (primary brown adipocytes; 0.5 μM, day 7 of differentiation (FIG. 2C)): about 75%
induction of oxygen consumption in cells from wildtype control mice (primary brown adipocytes; 129/S1 background, FIG. 3): increase in oxygen consumption
stimulation of UCP1-mediated thermogenesis (uncoupled respiration) (primary brown adipocytes): activate UCP1-dependent thermogenesis
stimulation of UCP1-mediated thermogenesis (uncoupled respiration) (primary brown adipocytes; listed as SCT): as potent as ISO (500 nM)
dose dependence and potency of activation of uncoupled respiration (primary brown adipocytes; compared to isoproterenol, data not shown): dose-dependent with a higher potency at lower concentrations as compared to isoproterenol
